Measurements as given in patent publication US20230190754A1, “Therapeutic combinations for the treatment of Progressive Fibrosing interstitial lung diseases” (Boehringer Ingelheim International GmbH, priority 2021, published 2023).
Marks after values point to notes of the source that are not given here.

System: IPF patients
Test: Phase II clinical trial in IPF patients: Treatment Emergent Adverse Events (safety/tolerability), up to 13 weeks
[1] = Non-AF-group, 18 mg b.i.d., listed as Compound of Formula III
[2] = Non-AF-group, 18 mg b.i.d., listed as active agent

`[O-][S@+]1CCc2nc(N3CCC(c4ncc(Cl)cn4)CC3)nc(NC3(CO)CCC3)c21` [Comp. of form. III] was tested, and the “AE: Decreased appetite, patients %” value (Non-AF-group, 18 mg b.i.d.) was “(2.1) %”, the “AE: Decreased appetite, patients n” value (Non-AF-group, 18 mg b.i.d.) was 1 and the “AE: Diarrhoea, patients %” value (Non-AF-group, 18 mg b.i.d.) was 16.7%. For the same compound, the “AE: Diarrhoea, patients n” value (Non-AF-group, 18 mg b.i.d.) was 8, the “AE: Dizziness, patients %” value (Non-AF-group, 18 mg b.i.d.) was “(2.1) %” and the “AE: Dizziness, patients n” value (Non-AF-group, 18 mg b.i.d.) was 1. For the same compound, the “AE: Dyspepsia, patients %” value (Non-AF-group, 18 mg b.i.d.) was “(6.3) %”, the “AE: Dyspepsia, patients n” value (Non-AF-group, 18 mg b.i.d.) was 3 and the “AE: Dyspnoea, patients %” value (Non-AF-group, 18 mg b.i.d.) was “(6.3) %”. For the same compound, the “AE: Dyspnoea, patients n” value (Non-AF-group, 18 mg b.i.d.) was 3, the “AE: Fatigue, patients %” value (Non-AF-group, 18 mg b.i.d.) was “(4.2) %” and the “AE: Fatigue, patients n” value (Non-AF-group, 18 mg b.i.d.) was 2. The “AE: Flatulence, patients %” value (Non-AF-group, 18 mg b.i.d.) was “(6.3) %”, the “AE: Flatulence, patients n” value (Non-AF-group, 18 mg b.i.d.) was 3 and the “AE: Gastrointestinal disorders, patients %” value (Non-AF-group, 18 mg b.i.d.) was “(27.1) %”. The “AE: Gastrointestinal disorders, patients n” value (Non-AF-group, 18 mg b.i.d.) was 13, the “AE: General disorders and administration site conditions, patients %” value (Non-AF-group, 18 mg b.i.d.) was “(18.8) %” and the “AE: General disorders and administration site conditions, patients n” value (Non-AF-group, 18 mg b.i.d.) was 9. For the same compound, the “AE: Headache, patients %” value (Non-AF-group, 18 mg b.i.d.) was “(6.3) %”, the “AE: Headache, patients n” value (Non-AF-group, 18 mg b.i.d.) was 3 and the “AE: Infections and infestations, patients %” value (Non-AF-group, 18 mg b.i.d.) was “(14.6) %”. For the same compound, the “AE: Infections and infestations, patients n” value (Non-AF-group, 18 mg b.i.d.) was 7, the “AE: Investigations, patients %” value (Non-AF-group, 18 mg b.i.d.) was “(10.4) %” and the “AE: Investigations, patients n” value (Non-AF-group, 18 mg b.i.d.) was 5. The “AE: Metabolism and nutrition disorders, patients %” value (Non-AF-group, 18 mg b.i.d.) was “(2.1) %”, the “AE: Metabolism and nutrition disorders, patients n” value (Non-AF-group, 18 mg b.i.d.) was 1 and the “AE: Musculoskeletal and connective tissue disorders, patients %” value (Non-AF-group, 18 mg b.i.d.) was “(4.2) %”. The “AE: Musculoskeletal and connective tissue disorders, patients n” value (Non-AF-group, 18 mg b.i.d.) was 2, the “AE: Nausea, patients %” value (Non-AF-group, 18 mg b.i.d.) was “(4.2) %” and the “AE: Nausea, patients n” value (Non-AF-group, 18 mg b.i.d.) was 2. For the same compound, the “AE: Nervous system disorders, patients %” value (Non-AF-group, 18 mg b.i.d.) was “(8.3) %”, the “AE: Nervous system disorders, patients n” value (Non-AF-group, 18 mg b.i.d.) was 4 and the “AE: Oedema peripheral, patients %” value (Non-AF-group, 18 mg b.i.d.) was “(2.1) %”. The “AE: Oedema peripheral, patients n” value (Non-AF-group, 18 mg b.i.d.) was 1, the “AE: Pyrexia, patients %” value (Non-AF-group, 18 mg b.i.d.) was “(2.1) %” and the “AE: Pyrexia, patients n” value (Non-AF-group, 18 mg b.i.d.) was 1. For the same compound, the “AE: Respiratory, thoracic and mediastinal disorders, patients %” value (Non-AF-group, 18 mg b.i.d.) was “(16.7) %”, the “AE: Respiratory, thoracic and mediastinal disorders, patients n” value (Non-AF-group, 18 mg b.i.d.) was 8 and the “AE: Rhinorrhoea, patients %” value (Non-AF-group, 18 mg b.i.d.) was “(2.1) %”. The “AE: Rhinorrhoea, patients n” value (Non-AF-group, 18 mg b.i.d.) was 1, the “AE: Vomiting, patients %” value (Non-AF-group, 18 mg b.i.d.) was “(2.1) %” and the “AE: Vomiting, patients n” value (Non-AF-group, 18 mg b.i.d.) was 1. The “AE: Weight decreased, patients %” value (Non-AF-group, 18 mg b.i.d.) was “(4.2) %”, the “AE: Weight decreased, patients n” value (Non-AF-group, 18 mg b.i.d.) was 2 and the “AEs leading to discontinuation of trial drug, patients %” value (Non-AF-group, 18 mg b.i.d.) was “(6.3) %”. For the same compound, the “AEs leading to discontinuation of trial drug, patients n” value (Non-AF-group, 18 mg b.i.d.) was 3, the “Any AE, patients n” value (Non-AF-group, 18 mg b.i.d.) was 31 and the “Gastrointestinal disorders leading to discontinuation of trial treatment, patients n” value (Non-AF-group, 18 mg b.i.d.) was 1. The “SAE: COPD, patients %” value (Non-AF-group, 18 mg b.i.d.) was “(2.1) %”, the “SAE: COPD, patients n” value (Non-AF-group, 18 mg b.i.d.) was 1 and the “SAE: Cardiac disorders, patients %” value (Non-AF-group, 18 mg b.i.d.) was “(2.1) %”. The “SAE: Cardiac disorders, patients n” value (Non-AF-group, 18 mg b.i.d.) was 1, the “SAE: Cardiac failure congestive, patients %” value (Non-AF-group, 18 mg b.i.d.) was “(2.1) %” and the “SAE: Cardiac failure congestive, patients n” value (Non-AF-group, 18 mg b.i.d.) was 1. For the same compound, the “SAE: Covid-19 pneumonia (fatal event), patients %” value (Non-AF-group, 18 mg b.i.d.) was “(2.1)* %”, the “SAE: Covid-19 pneumonia (fatal event), patients n” value (Non-AF-group, 18 mg b.i.d.) was 1 and the “SAE: Dyspnoea, patients %” value (Non-AF-group, 18 mg b.i.d.) was “(2.1) %”. For the same compound, the “SAE: Dyspnoea, patients n” value (Non-AF-group, 18 mg b.i.d.) was 1, the “SAE: Infections and Infestations, patients %” value (Non-AF-group, 18 mg b.i.d.) was “(2.1) %” and the “SAE: Infections and Infestations, patients n” value (Non-AF-group, 18 mg b.i.d.) was 1. The “SAE: Lung neoplasm, patients %” value (Non-AF-group, 18 mg b.i.d.) was “(2.1) %”, the “SAE: Lung neoplasm, patients n” value (Non-AF-group, 18 mg b.i.d.) was 1 and the “SAE: Neoplasms benign, malignant and unspecified, patients %” value (Non-AF-group, 18 mg b.i.d.) was “(2.1) %”. For the same compound, the “SAE: Neoplasms benign, malignant and unspecified, patients n” value (Non-AF-group, 18 mg b.i.d.) was 1, the “SAE: Respiratory, thoracic and mediastinal disorders, patients %” value (Non-AF-group, 18 mg b.i.d.) was “(2.1) %” and the “SAE: Respiratory, thoracic and mediastinal disorders, patients n” value (Non-AF-group, 18 mg b.i.d.) was 1. For the same compound, the “Serious AEs (patients with ≥1 SAE), patients %” value (Non-AF-group, 18 mg b.i.d.) was “(6.3) %”, the “Serious AEs (patients with ≥1 SAE), patients n” value (Non-AF-group, 18 mg b.i.d.) was 3 and the “Severe AEs, patients %” value (Non-AF-group, 18 mg b.i.d.) was “(4.2) %”. For the same compound, the “Severe AEs, patients n” value (Non-AF-group, 18 mg b.i.d.) was 2, the “Vomiting leading to discontinuation of trial treatment, patients %” value (Non-AF-group, 18 mg b.i.d.) was “(2.1) %” and the “Vomiting leading to discontinuation of trial treatment, patients n” value (Non-AF-group, 18 mg b.i.d.) was 1. For the same compound, the “AE: Diarrhoea, patients %” value [1] was “(16.7) %”, the “Any AE, patients %” value [1] was “(64.6) %” and the “Gastrointestinal disorders leading to discontinuation of trial treatment, patients %” value [1] was “(2.1) %”. The “AE: Diarrhoea, patients %” value [2] was 16.7%, the “Any AE, patients %” value [2] was 64.6% and the “Gastrointestinal disorders leading to discontinuation of trial treatment, patients %” value [2] was 2.1%. For the same compound, the “Abdominal Pain, %” value (Total, N = 97) was “(2.1) %”, the “Arthralgia, %” value (Total, N = 97) was “(2.1) %” and the “Asthenia, %” value (Total, N = 97) was “(4.1) %”. For the same compound, the “Bronchitis, %” value (Total, N = 97) was “(2.1) %”, the “Condition aggravated, %” value (Total, N = 97) was “(2.1) %” and the “Constipation, %” value (Total, N = 97) was “(3.1) %”. The “Cough, %” value (Total, N = 97) was “(7.2) %”, the “Decreased appetite, %” value (Total, N = 97) was “(3.1) %” and the “Diarrhoea, %” value (Total, N = 97) was “(23.7) %”. The “Dizziness, %” value (Total, N = 97) was “(2.1) %”, the “Dyspepsia, %” value (Total, N = 97) was “(5.2) %” and the “Dyspnoea, %” value (Total, N = 97) was “(3.1) %”. The “Fatigue, %” value (Total, N = 97) was “(3.1) %”, the “Flatulence, %” value (Total, N = 97) was “(5.2) %” and the “Gastrointestinal disorders, %” value (Total, N = 97) was “(32.0) %”. The “General Disorders and Administration Side conditions, %” value (Total, N = 97) was “(16.5) %”, the “Headache, %” value (Total, N = 97) was “(6.2) %” and the “Infections and infestations, %” value (Total, N = 97) was “(14.4) %”. For the same compound, the “Investigations, %” value (Total, N = 97) was “(15.5) %”, the “Metabolism and nutrition disorders, %” value (Total, N = 97) was “(4.1) %” and the “Musculoskeletal and connective tissue disorders, %” value (Total, N = 97) was “(5.2) %”. The “Nasopharyngitis, %” value (Total, N = 97) was “(4.1) %”, the “Nausea, %” value (Total, N = 97) was “(3.1) %” and the “Nervous system disorders, %” value (Total, N = 97) was “(13.4) %”. For the same compound, the “Oedema peripheral, %” value (Total, N = 97) was “(2.1) %”, the “Pyrexia, %” value (Total, N = 97) was “(2.1) %” and the “Respiratory, thoracic and mediastinal disorders, %” value (Total, N = 97) was “(14.4) %”. The “Rhinorrhoea, %” value (Total, N = 97) was “(2.1) %”, the “Vomiting, %” value (Total, N = 97) was “(3.1) %” and the “Weight decreased, %” value (Total, N = 97) was “(3.1) %”.
